Results from patent publication US8697687B2, “Treating diseases mediated by blockade of the epithelial sodium channel with pyrazine-2-carboxamide derivatives” (Novartis AG, priority 2007, dated 2014).

Biological target: T1, epithelial sodium channel (ENaC) (Homo sapiens, UniProt P37088+P51168+P51170)
T1 construct: host or cells: primary Human Bronchial Epithelial cells (HBECs), air-liquid interface culture
T1 sequence (P37088 1-669): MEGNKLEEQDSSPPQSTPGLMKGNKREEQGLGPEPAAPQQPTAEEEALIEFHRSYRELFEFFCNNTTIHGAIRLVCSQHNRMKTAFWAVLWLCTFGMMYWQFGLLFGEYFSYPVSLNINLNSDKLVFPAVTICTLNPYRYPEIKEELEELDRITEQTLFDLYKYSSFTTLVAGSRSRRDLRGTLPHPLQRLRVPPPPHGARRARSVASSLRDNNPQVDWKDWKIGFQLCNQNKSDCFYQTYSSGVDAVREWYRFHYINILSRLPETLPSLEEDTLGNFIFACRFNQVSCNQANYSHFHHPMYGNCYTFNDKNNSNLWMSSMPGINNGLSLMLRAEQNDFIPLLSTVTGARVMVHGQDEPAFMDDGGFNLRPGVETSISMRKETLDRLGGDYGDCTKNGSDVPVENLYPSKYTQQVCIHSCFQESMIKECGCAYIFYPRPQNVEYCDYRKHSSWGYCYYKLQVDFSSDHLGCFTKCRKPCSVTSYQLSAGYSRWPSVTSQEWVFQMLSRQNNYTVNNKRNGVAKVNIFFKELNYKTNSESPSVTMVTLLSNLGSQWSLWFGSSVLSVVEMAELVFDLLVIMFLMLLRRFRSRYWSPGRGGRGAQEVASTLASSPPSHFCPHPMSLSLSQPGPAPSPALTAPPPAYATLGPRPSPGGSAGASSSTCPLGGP
T1 sequence (P51168 1-640): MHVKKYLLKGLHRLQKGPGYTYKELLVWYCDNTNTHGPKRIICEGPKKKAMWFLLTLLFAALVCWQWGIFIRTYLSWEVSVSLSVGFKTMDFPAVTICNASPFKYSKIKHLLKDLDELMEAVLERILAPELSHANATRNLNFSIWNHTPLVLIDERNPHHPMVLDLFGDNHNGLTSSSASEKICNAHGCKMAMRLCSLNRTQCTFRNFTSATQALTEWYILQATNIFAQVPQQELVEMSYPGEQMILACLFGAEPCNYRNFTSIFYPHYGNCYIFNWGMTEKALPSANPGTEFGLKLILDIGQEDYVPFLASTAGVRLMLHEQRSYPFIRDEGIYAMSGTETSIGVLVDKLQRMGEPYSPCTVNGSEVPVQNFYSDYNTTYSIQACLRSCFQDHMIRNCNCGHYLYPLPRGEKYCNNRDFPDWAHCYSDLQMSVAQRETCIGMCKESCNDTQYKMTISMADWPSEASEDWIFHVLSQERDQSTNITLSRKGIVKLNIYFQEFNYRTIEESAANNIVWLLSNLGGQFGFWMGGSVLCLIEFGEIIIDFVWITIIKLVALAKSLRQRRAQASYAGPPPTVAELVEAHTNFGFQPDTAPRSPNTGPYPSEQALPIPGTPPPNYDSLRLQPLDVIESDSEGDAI
T1 sequence (P51170 1-649): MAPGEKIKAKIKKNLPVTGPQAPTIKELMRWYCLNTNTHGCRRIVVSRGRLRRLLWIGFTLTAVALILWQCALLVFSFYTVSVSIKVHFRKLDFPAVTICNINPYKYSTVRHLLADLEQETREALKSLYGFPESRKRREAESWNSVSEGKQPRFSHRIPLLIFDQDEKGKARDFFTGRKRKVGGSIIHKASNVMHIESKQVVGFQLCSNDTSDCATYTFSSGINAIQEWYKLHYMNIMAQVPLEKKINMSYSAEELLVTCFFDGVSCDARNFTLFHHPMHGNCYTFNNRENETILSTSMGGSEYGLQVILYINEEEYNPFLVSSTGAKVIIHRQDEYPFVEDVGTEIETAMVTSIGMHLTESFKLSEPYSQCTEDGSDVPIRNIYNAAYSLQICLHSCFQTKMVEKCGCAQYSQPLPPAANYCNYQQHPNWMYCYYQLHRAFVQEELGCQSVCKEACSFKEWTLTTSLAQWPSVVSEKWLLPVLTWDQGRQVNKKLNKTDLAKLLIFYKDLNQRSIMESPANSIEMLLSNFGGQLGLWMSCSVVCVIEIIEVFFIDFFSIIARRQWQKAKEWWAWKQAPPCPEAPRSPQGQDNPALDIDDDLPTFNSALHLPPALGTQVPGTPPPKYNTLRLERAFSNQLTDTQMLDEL
Test: Short circuit current (ISC) measurements in Human Bronchial Epithelial cells, inhibition of amiloride-sensitive ISC
Assay type: cell-based
Settings: inhibition of the amiloride-sensitive ISC; Human Bronchial Epithelial cells (HBECs) at air-liquid interface; compound added to apical chamber; read-out: IC50
Protocol: Compounds of formula (I) and their pharmaceutically acceptable salts, hereinafter referred to alternatively as “agents of the invention”, are useful as pharmaceuticals. In particular, the compounds have good ENaC blocker activity and may be tested in the following assays.
Human Bronchial Epithelial cells (HBECs) (Cambrex) were cultured under air-liquid interface conditions to provide a well differentiated mucociliary phenotype.
HBECs were cultured using a modification of the method described by Gray and colleagues (Gray et al., 1996). Cells were seeded in plastic T-162 flasks and were grown in bronchial epithelial cell growth medium (BEGM; Cambrex) supplemented with bovine pituitary extract (52 μg/mL), hydrocortisone (0.5 μg/mL), human recombinant epidermal growth factor (0.5 ng/mL), epinephrine (0.5 μg/mL), transferrin (10 μg/mL), insulin (5 μg/mL), retinoic acid (0.1 μg/mL), triiodothyronine ([…]), gentamycin (50 μg/mL) and amphotericin B (50 ng/mL). Medium was changed every 48 hours until cells were 90% confluent. Cells were then passaged and seeded (8.25×10^5 cells/insert) on polycarbonate Snapwell inserts (Costar) in differentiation media containing 50% DMEM in BEGM with the same supplements as above but without triiodothyronine and a final retinoic acid concentration of 50 nM (all-trans retinoic acid). Cells were maintained submerged for the first 7 days in culture, after which time they were exposed to an apical air interface for the remainder of the culture period. At this time, media was changed to DMEM:F12 media containing 2% v/v Ultroser G for the remainder of culture. Amphotericin B was removed from all media 3 feeds prior to use in the Using Chambers. Cells were used between days 7 and 21 after establishment of the apical-air interface. At all stages of culture, cells were maintained at 37° C. in 5% CO2 in an air incubator.
Short Circuit Current (ISC) Measurements
Snapwell inserts were mounted in Vertical Diffusion Chambers (Costar) and were bathed with continuously gassed Ringer solution (5% CO2 in O2; pH 7.4) maintained at 37° C. containing (in mM): 120 NaCl, 25 NaHCO3, 3.3 KH2PO4, 0.8 K2HPO4, 1.2 CaCl2, 1.2 MgCl2, and 10 glucose. The solution osmolarity was between 280 and 300 mOsmol/kg H2O for all physiological salt solutions used. Cells were voltage clamped to 0 mV (model EVC4000; WPI). RT was measured by applying a 1- or 2-mV pulse at 30-s intervals and calculating RT by Ohm's law. Data were recorded using a PowerLab workstation (ADInstruments).
Test compounds were prepared as a 10 mM stock solution in DMSO (95%). Serial 3-fold dilutions were freshly prepared in an appropriate vehicle (distilled H2O or Ringers solution). The initial concentration was added to the apical chamber as a 1000× concentrate in 5 μL, resulting in a final 1× concentration the 5 mL volume of the Ussing chamber. Subsequent additions of compound were added in a 3.3 μL volume of the 1000× serially diluted stock solution. At the completion of the concentration-response experiment, amiloride (10 μM) was added into the apical chamber to enable the total amiloride-sensitive current to be measured. An amiloride control IC50 was established at the start of each experiment.
Results are expressed as the mean % inhibition of the amiloride-sensitive ISC. Concentration-response curves were plotted and IC50 values generated using GraphPad Prism 3.02. Cell inserts were typically run in duplicate and the IC50 calculated on the mean % inhibition data.

Row | Structure (SMILES) | IC50 [nM]
1 | Nc1nc(N)c(C(=O)/N=C2/NC[C@H](CCCCNC(=O)OCc3ccccc3)N2)nc1Cl [Example 5, (4-{(S)-2-[(E)-3,5-Diamino-6-chloro-pyrazine-2-carbonylimino]-imidazolidin-4-yl}-butyl)-carbamic acid benzyl ester] | 65
2 | Nc1nc(N)c(C(=O)N=C2NC3CCCCC3N2)nc1Cl (stereo not drawn) [Example 11, 3,5-Diamino-6-chloro-pyrazine-2-carboxylic acid (octahydro-benzoimidazol-2-ylidene)-amide] | 1690
3 | Nc1nc(N)c(C(=O)/N=C2/NC[C@@H](CCCc3ccc(OC[C@@H](O)CO)cc3)N2)nc1Cl [Example 19, 3,5-Diamino-6-chloro-pyrazine-2-carboxylic acid [(R)-4-{3-[4-((S)-2,3-dihydroxy-propoxy)-phenyl]-propyl}-imidazolidin-(2Z)-ylidene]-amide] | 18
4 | Nc1nc(N)c(C(=O)/N=C2/NC[C@@H](CCCc3ccc(OCC(=O)N4CCOCC4)cc3)N2)nc1Cl [Example 23, 3,5-Diamino-6-chloro-pyrazine-2-carboxylic acid [(R)-4-{3-[4-(2-morpholin-4-yl-2-oxo-ethoxy)-phenyl]-propyl}-imidazolidin-(2Z)-ylidene]-amide] | 33.5
5 | CC(C)(CCOCc1ccccc1)C[C@H]1CN/C(=N/C(=O)c2nc(Cl)c(N)nc2N)N1 [Example 26] | 11
6 | Nc1nc(N)c(C(=O)/N=C2\NC[C@H](CCCNC(=O)NCc3ccccc3)N2)nc1Cl [Example 32, 3,5-Diamino-6-chloro-pyrazine-2-carboxylic acid [(S)-4-[3-(3-benzyl-ureido)-propyl]-imidazolidin-(2E)-ylidene]-amide] | 18
7 | Nc1nc(N)c(C(=O)/N=C2\NC[C@H](CCCNC(=O)Cc3ccccc3)N2)nc1Cl [Example 34, 3,5-Diamino-6-chloro-pyrazine-2-carboxylic acid [(S)-4-(3-phenylacetylamino-propyl)-imidazolidin-(2E)-ylidene]-amide] | 95
8 | Nc1nc(N)c(C(=O)/N=C2\NC[C@H](CCCCNS(=O)(=O)Cc3ccccc3)N2)nc1Cl [Example 35, 3,5-Diamino-6-chloro-pyrazine-2-carboxylic acid [(S)-4-(4-phenylmethanesulfonylamino-butyl)-imidazolidin-(2E)-ylidene]-amide] | 31
9 | Cc1ccc(S(=O)(=O)N[C@@H](Cc2ccccc2)C(=O)N2CCC3(CC2)CN/C(=N\C(=O)c2nc(Cl)c(N)nc2N)N3)cc1 [Example 39, 3,5-Diamino-6-chloro-pyrazine-2-carboxylic acid [8-[(S)-3-phenyl-2-(toluene-4-sulfonylamino)-propionyl]-1,3,8-triaza-spiro[4.5]dec-(2E)-ylidene]-amide] | 5.5
10 | Nc1nc(N)c(C(=O)/N=C2\NCC3(CCN(C(=O)c4cn(S(=O)(=O)c5ccccc5)c5ccccc45)CC3)N2)nc1Cl [Example 40, 3,5-Diamino-6-chloro-pyrazine-2-carboxylic acid [8-(1-benzenesulfonyl-1H-indole-3-carbonyl)-1,3,8-triaza-spiro[4.5]dec-(2E)-ylidene]-amide] | 5.5
11 | CC(C)OCCCNS(=O)(=O)c1cccc(C(=O)N2CCC3(CC2)CN/C(=N\C(=O)c2nc(Cl)c(N)nc2N)N3)c1 [Example 41, 3,5-Diamino-6-chloro-pyrazine-2-carboxylic acid [8-[3-(3-isopropoxy-propylsulfamoyl)-benzoyl]-1,3,8-triaza-spiro[4.5]dec-(2E)-ylidene]-amide] | 9.5
12 | Nc1nc(N)c(C(=O)/N=C2\NCC3(CCN(C(=O)Cc4nnc(-c5ccccc5)[nH]4)CC3)N2)nc1Cl [Example 42, 3,5-Diamino-6-chloro-pyrazine-2-carboxylic acid [8-[2-(5-phenyl-4H-[1,2,4]triazol-3-yl)-acetyl]-1,3,8-triaza-spiro[4.5]dec-(2E)-ylidene]-amide] | 11
13 | CC(C)NC(=O)Nc1cccc(C(=O)N2CCC3(CC2)CN/C(=N\C(=O)c2nc(Cl)c(N)nc2N)N3)c1 [Example 43, 3,5-Diamino-6-chloro-pyrazine-2-carboxylic acid [8-[3-(3-isopropyl-ureido)-benzoyl]-1,3,8-triaza-spiro[4.5]dec-(2E)-ylidene]-amide] | 13
14 | Nc1nc(N)c(C(=O)/N=C2\NCC3(CCN(C(=O)Cc4csc5ccccc45)CC3)N2)nc1Cl [Example 44, 3,5-Diamino-6-chloro-pyrazine-2-carboxylic acid [8-(2-Benzo[b]thiophen-3-yl-acetyl)-1,3,8-triaza-spiro[4.5]dec-(2E)-ylidene]-Amide] | 29.5
15 | Nc1nc(N)c(C(=O)/N=C2\NCC3(CCN(C(=O)C4CC(=O)N(CCCn5cccc5)C4)CC3)N2)nc1Cl (stereo not drawn) [Example 45, 3,5-Diamino-6-chloro-pyrazine-2-carboxylic acid [8-[5-oxo-1-(3-pyrrol-1-yl-propyl)-pyrrolidine-3-carbonyl]-1,3,8-triaza-spiro[4.5]dec-(2E)-ylidene]-amide] | 42.6
